Calls of active or inactive are those of the source.
Legend:
[1] = reduced cellular PGC1a acetyl-lysine signal – cell-based, cherry-picked samples, dose response (AID 720514); assay type: functional;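 further: potency may reflect raised or lowered acetylation signal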
[2] = viability loss in HepG2 hepatoma cells – cell-based, cherry-picks, set 5, cytotoxicity control, dose response (AID 1053118); assay type: functional
[3] = viability loss in HEK293 kidney cells – cell-based, cherry-picks, set 5, cytotoxicity control, dose response (AID 1053117); assay type: functional
[4] = viability loss in A549 lung cancer cells – cell-based, cherry-picks, […], cytotoxicity control, dose response (AID 1053119); assay type: functional
[5] = THP-1 cell cytotoxicity, dose response, cytotoxicity control for non-replicating M. tuberculosis project (AID 489025); assay type: functional
[6] = Vero E6 cell cytotoxicity, dose response, cytotoxicity control for non-replicating M. tuberculosis project, secondary assay (AID 492998); assay type: functional, VeroE6; conditions: Vero C1008
[7] = target: T1, Microphthalmia-associated transcription factor (Homo sapiens, UniProt O75030); assay: reducers of TRPM1 reporter luminescence, concentration series – cell-based, SK-MEL-5, cherry-picked, set 3, MITF inhibitor project, dose response (AID 493073); assay type: functional;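 further: SK-MEL-5 melanoma cells with luciferase driven by the MITF target TRPM1 promoter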
T1 sequence (O75030 whole entry): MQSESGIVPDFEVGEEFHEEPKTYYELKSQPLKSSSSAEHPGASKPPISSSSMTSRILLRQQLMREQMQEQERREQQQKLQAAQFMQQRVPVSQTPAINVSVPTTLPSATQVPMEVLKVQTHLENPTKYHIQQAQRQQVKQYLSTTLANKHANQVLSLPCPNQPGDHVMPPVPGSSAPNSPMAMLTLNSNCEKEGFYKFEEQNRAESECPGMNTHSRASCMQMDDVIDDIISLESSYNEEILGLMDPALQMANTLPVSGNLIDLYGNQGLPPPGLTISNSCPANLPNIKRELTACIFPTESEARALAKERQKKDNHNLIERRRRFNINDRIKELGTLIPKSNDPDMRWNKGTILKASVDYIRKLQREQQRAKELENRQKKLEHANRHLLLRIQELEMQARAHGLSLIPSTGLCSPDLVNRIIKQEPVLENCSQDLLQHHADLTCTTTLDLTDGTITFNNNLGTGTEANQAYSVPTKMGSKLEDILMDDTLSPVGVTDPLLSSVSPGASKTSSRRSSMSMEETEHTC

[8] = cytotoxicity in MITF-independent A375 cells – cell-based, CellTiter-Glo luminescence, dry powder, set 4, counter-screen for MITF inhibitor project, dose response (AID 624364); assay type: functional; conditions: A-375;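 further: A375 melanoma cells are MITF independent so this is a counter screen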
[9] = viability loss in MITF-independent A375 cells – cell-based, CellTiter-Glo luminescence, dry powder, set 2, counter-screen for MITF inhibitor project, dose response (AID 624489); assay type: functional; conditions: A-375;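 further: actives are compounds lowering A375 viability meaning general cytotoxicity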
[10] = target: fMet-Leu-Phe receptor (Homo sapiens, UniProt P21462); assay: formyl peptide receptor binders – dose response (AID 519); assay type: functional
[11] = target: Paired box protein Pax-8 (Homo sapiens, UniProt Q06710); assay: PAX8 transcriptional activity inhibition in RMG-I – RMG-I cells, luciferase, cherry-pick, dose response (AID 687027); assay type: functional, cell-based;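 further: luciferase reporter driven by Pax8 target thyroperoxidase promoter measured by SteadyGlo luminescence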
[12] = A2780 cell killing – plate reader, dry powder samples, cytotoxicity control, dose response (AID 743046); assay type: functional, cell-based
[13] = OVCAR-3 cell viability loss – plate reader, dry powder samples, PAX8 inhibitor project, dose response (AID 743044); assay type: functional, cell-based
[14] = general cell-killing toxicity readout – plate reader, dry powder samples, cytotoxicity control for PAX8 inhibitor project, dose response (AID 743021); assay type: functional, cell-based
[15] = OVCAR8 cell viability loss – plate reader, dry powder samples, PAX8 project, dose response (AID 743197); assay type: functional, cell-based; conditions: OVCAR-8
[16] = viability of PTEN-deleted HCT116 cells – cell-based, HCT116 PTEN knockout, dose response (AID 1047); assay type: functional;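 further: HCT116 colon tumor cells with PTEN knocked out; cells exposed to compound for 60 hours before readout; potency for loss of cell viability measured by luminescence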
[17] = viability of HCT116 lacking mutant beta-catenin – cell-based, human colon tumor, dose response (AID 1045); assay type: functional;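 further: HCT116 colon tumor cells with beta catenin knocked out; cells exposed to compound for 60 hours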
[18] = potency of ADAM10 substrate cleavage blockers – biochemical, QFRET, dose response (AID 743254);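 further: ADAM10 enzyme with the DM2 quenched FRET peptide as substrate; EDANS fluorescence gain as the protease cuts the substrate; inhibitor potency against ADAM10 proteolytic activity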
[19] = target: Disintegrin and metalloproteinase domain-containing protein 17 (Homo sapiens, UniProt P78536); assay: inhibition of ADAM17 substrate cleavage – biochemical, quenched FRET substrate, counter-screen for ADAM10 exosite inhibitor project, dose response (AID 743253)
Disintegrin and metalloproteinase domain-containing protein 17, sequence (P78536 whole entry, the tested form may be a part): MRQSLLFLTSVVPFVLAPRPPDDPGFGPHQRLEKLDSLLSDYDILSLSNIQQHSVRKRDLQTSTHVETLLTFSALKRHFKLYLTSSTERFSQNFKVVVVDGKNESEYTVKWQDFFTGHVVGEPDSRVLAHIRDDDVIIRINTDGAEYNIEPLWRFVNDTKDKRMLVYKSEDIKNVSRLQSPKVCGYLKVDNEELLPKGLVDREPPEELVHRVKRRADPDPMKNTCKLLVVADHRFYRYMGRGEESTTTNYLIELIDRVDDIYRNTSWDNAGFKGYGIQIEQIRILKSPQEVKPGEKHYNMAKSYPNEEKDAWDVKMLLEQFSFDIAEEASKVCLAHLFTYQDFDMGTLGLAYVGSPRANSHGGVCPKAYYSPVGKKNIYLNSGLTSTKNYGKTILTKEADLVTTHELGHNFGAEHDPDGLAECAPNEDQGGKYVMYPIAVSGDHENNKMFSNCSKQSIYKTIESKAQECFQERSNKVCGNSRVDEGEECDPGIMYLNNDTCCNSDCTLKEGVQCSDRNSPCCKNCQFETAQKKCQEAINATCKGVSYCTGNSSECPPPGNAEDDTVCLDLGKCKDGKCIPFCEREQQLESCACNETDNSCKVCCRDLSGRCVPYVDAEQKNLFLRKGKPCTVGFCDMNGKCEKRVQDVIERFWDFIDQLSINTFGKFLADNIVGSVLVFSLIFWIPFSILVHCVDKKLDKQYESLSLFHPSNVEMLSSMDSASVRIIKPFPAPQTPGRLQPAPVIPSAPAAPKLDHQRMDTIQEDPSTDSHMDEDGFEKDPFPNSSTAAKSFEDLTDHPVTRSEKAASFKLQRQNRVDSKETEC

Paired box protein Pax-8, sequence (Q06710 whole entry): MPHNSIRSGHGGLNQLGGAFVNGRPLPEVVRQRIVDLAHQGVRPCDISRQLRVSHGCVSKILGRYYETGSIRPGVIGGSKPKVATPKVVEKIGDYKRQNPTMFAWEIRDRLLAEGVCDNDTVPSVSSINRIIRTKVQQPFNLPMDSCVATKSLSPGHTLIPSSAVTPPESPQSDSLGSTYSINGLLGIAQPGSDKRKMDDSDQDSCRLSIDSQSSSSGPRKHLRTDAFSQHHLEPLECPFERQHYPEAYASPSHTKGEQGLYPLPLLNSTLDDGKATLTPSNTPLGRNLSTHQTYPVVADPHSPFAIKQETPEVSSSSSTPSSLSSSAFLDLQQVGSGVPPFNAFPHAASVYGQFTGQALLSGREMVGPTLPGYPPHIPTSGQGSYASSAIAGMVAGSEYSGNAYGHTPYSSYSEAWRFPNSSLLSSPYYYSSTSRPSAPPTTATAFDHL
fMet-Leu-Phe receptor, sequence (P21462 whole entry): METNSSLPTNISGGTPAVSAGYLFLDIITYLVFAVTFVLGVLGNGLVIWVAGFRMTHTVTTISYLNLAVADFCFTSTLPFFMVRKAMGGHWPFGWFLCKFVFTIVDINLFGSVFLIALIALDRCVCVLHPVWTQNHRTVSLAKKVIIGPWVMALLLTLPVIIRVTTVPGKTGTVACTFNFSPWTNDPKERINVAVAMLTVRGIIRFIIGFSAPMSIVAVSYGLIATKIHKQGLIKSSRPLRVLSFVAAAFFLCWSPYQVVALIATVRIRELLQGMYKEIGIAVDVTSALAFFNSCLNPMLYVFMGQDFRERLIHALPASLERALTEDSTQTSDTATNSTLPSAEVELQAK

CO[C@H]1CN(C)C(=O)c2ccc(NC(=O)c3ccc(-c4ccccc4)cc3)cc2OC[C@H](C)NC[C@@H]1C
AC50 [1]: 31.9 µM (active) | AC50 [2]: > 52 µM (inactive) | AC50 [3]: > 52 µM (inactive) | AC50 [4]: > 52 µM (inactive)

COc1ccc(S(=O)(=O)N(C(C)=O)c2ccc(OC(C)=O)c3ccccc23)cc1[N+](=O)[O-]
CC50 [5]: 10.7 µM (active) | CC50 [6]: > 20 µM (active) | AC50 [7]: 11.6 µM (active) | AC50 [8]: 55.5 µM (active) | AC50 [9]: 29.1 µM (active)

COc1ccc(CN(C(=O)c2ccccc2OC)C2CCS(=O)(=O)C2)cc1 (configuration not stated)
Ki [10]: > 66.7 µM (inactive)

C[C@H]1CCCCO[C@H](CN(C)S(=O)(=O)c2ccccc2)[C@@H](C)CN([C@@H](C)CO)C(=O)c2cc(NS(=O)(=O)c3ccc(Cl)cc3)ccc2O1
AC50 [11]: 7.4 µM (active) | AC50 [12]: 19.1 µM (active) | AC50 [13]: 58.4 µM (active) | AC50 [14]: 43.2 µM (active) | AC50 [15]: > 70 µM (inactive)

O=S(=O)(N/N=C/c1cn(Cc2ccccc2)c2ccccc12)c1ccccc1
EC50 [16]: 3.27 µM (active) | EC50 [17]: 35.6 µM (active) | IC50 [18]: 25.1 µM (inactive) | IC50 [19]: > 69.5 µM (inactive)

CO[C@H]1CN(C)C(=O)c2cc(NC(=O)Nc3cc(Cl)cc(Cl)c3)ccc2OC[C@H](C)NC[C@H]1C
AC50 [2]: 16.6 µM (active) | AC50 [3]: 34.3 µM (active) | AC50 [4]: > 52 µM (inactive)
